Measured values from patent US20050249818A1, “Polycationic antimicrobial therapeutic” (priority 2004, published 2005).

Test system: C. albicans #5
Type: in vivo
Description: Five-week-old female CD-1 mice were purchased from Charles River Laboratories. Mice were placed in cages in groups of five. To immunosuppress the mice and allow for the establishment of mucosal infection, 5-FU was given intravenously once every 7 days, starting on day-2. Antibiotics were given in the drinking water in autoclaved bottles to reduce potential confounding secondary bacterial infections. Gentamycin at 0.2 mg/ml, clindamycin at 1 mg/ml, vancomycin 1 mg/ml were added to sterile drinking water. Bottles and drinking water were changed every day. Imipenem is given at 5 mg/mouse (IP, QD). Antibiotics were begun on day-3.
C. albicans #5 was transferred from storage at −80° C. and streaked for isolation on Sabouraud Dextrose Agar plates with chloramphenicol. The plates were incubated at 35° C. for 48 hours. The organisms were inoculated in sterile bottles each containing 100 ml of SAAMF broth and incubated for 48 hours at 35° C. on a gyratory shaker. C. albicans was harvested by transferring the broth culture to sterile 50 ml centrifuge tubes and centrifuged for 15 minutes at 2000 RPM. The cells were washed once with saline and then suspended in saline. The cells were counted using a hemacytometer. Inoculum dilutions were made in sterile water. The final inoculum was 2×10^8 cells/ml of drinking sterile water plus antibiotics. The inoculum viability determined by plating serial dilutions on SDA plates with chloramphenicol was 1.85×10^8 cells per ml. Plates were incubated overnight at 35° C. for verification count of the inoculum.
In the morning before the preparation of the inoculum the drinking bottles were removed 8 hours prior to replacement with the inoculum suspension of C. albicans. The mice were allowed to drink from this suspension for 24 hours at which time the inoculum suspension was removed and replaced with drinking water containing antibiotics (day 0).
Beginning on day 4 postinfection, mice were untreated or treated with either, Surfacine D™ diluent (undiluted), 3% Surfacine D, PEG dilutent or 1% clotrimazole.
PEG 400, 1% clotrimazole in PEG400, or given no treatment. Treatments were done for 10 consecutive days and were given twice daily. Treatments were done by dipping a sterile calcium alginate swab into the solution and then swabbing the oral cavity of the mouse to ensure coverage with the solution. It was not necessary to anesthetize the animals to perform the treatments. Treatment ended on day 13 postinfection.
On day 15 postinfection all surviving mice were euthanatized using CO2 gas. The tongue of each mouse was swabbed with sterile calcium alginate swab and the swab placed in 0.4 ml of 1×PBS. The swab in PBS was vigorously mixed with a vortex mixer to dissolve the alginate and release the organisms into suspension, and two 10-fold dilutions were made and plated in duplicate on SDA without chloramphenicol.
Survival was analyzed using a log rank test and comparative CFU between groups was analyzed using a Mann-Whitney U test. A log10 value of 6.5 was assigned as CFU for data points missing due to the death of the animal. This value is arbitrarily set to be higher than any burden recovered from surviving mice and assures that death is considered as a worse outcome than is survival regardless of burden.

**Q.** With `Clc1ccccc1C(c1ccccc1)(c1ccccc1)n1ccnc1` [1% clotrimazole, clotrimazole] as the compound, how does the “reduction in CFU in comparison with the untreated controls” value (CFU recovered from the tongue, day 15 postinfection) read?
**A.** ~30 fold

**Q.** What about the “ranking among the treatments” value (in vivo) of the same compound?
**A.** most effective of the treatments

**Q.** And the “behavioral observations during treatments” value (in vivo, po)?
**A.** did not exhibit these behaviors or symptoms

**Q.** What about the deaths (mice, oral swab twice daily for 10 days, to day 15 postinfection) of the same compound?
**A.** one

**Q.** And the “gross pathological appearance of the tongue mucosal surface at necropsy” value (surviving mice, day 15 postinfection)?
**A.** normal mucosal surface appearance
